The structures appear in SMILES notation. Counter-ions that a name gives are not always drawn. Bounds are passed on as bounds.

Common to all, as to type: physicochemical
Data set [1] can be described thus: Kinetic solubility in water (HPLC). The settings on record: 20 °C; for amount nearly dissolved in 0.5 mL of added water: 0.5 mL water; for amount nearly dissolved in 0.5 mL of added water / Approximate Solubility (mg/0.5 mL) / Approximate Solubility / Approximate Solubility (g/mL): 30 min; for Approximate Solubility (mg/0.5 mL) / Approximate Solubility / Approximate Solubility (g/mL) / Content of Salt in VF (mg) 30 min: water, HPLC; for Approximate Solubility / Approximate Solubility (g/mL): kinetic solubility. As to the method:
The kinetic solubility of Form A epinephrine malonate salt and bitartrate salt was determined using the procedure described herein. The solid active pharmaceutical ingredient was allowed to equilibrate from 5 °C to ambient temperature for 1 h. Solids were weighed (0.76 g of malonate and 0.20 g of bitartrate) into 4-mL vials containing a magnetic polytetrafluoroethylene (PTFE) stir bar. Water (0.5 mL) was added and samples were stirred at 20 °C. Additional API was gradually added in small portions over 30 min until trace amount of residual solid was present. At 30 min, the content of the nearly dissolved sample was transferred to a volumetric flask (VF), diluted, subjected to HPLC analyses, and adjusted for initial volume of water used.
The HPLC analysis was conducted using an Agilent 1100 with a Phenomenx Gemini C18, 100×4.6 mm, 3.0 um column. The column temperature was 50 °C, wavelength 210 nm, and flow rate 1.2 mL/min. Mobile Phase A was 5:95 MeCN: Buffer and Mobile Phase B was 45:55 MeCN: Buffer.
The kinetic solubility of Form B was determined using the procedure described herein. The solid Form B was allowed to equilibrate from storage temperature (5 °C) to ambient temperature for 1 hour. Solids were weighed (0.025 g of Form B) into a 4-mL vial containing a magnetic PTFE stir bar. Water (0.5 mL) was added and the sample was stirred at 20 °C. Additional API was gradually added in small portions over 30 min until trace amount of residual solid was present. At 30 minutes, the content of the nearly dissolved sample was transferred to a volumetric flask (VF), diluted, subjected to HPLC analyses, and adjusted for initial volume of water used.

Data set [2] in a line: Water solubility of epinephrine malonate salt (general description). The following applies: no method given.
Data set [3] can be described thus: Dynamic vapor sorption (DVS). The settings on record: 25 °C, nitrogen carrier gas, 0-95% relative humidity. As to the method: Form A was subjected to DVS. DVS is a gravimetric technique that measures how quickly and how much of a solvent is absorbed by a sample such as a dry powder absorbing water. The test was conducted using a Surface Measurement Systems DVS Intrinsic Plus at a temperature of 25 °C and using nitrogen as a carrier gas. The relative humidity range spanned from 0-95% and the maximum equilibration time was 240 minutes. The relative humidity steps included 40-50-60-70-75-70-60-50-40-30-20-10-0-10-20-30-40-50-60-70-75-80-90-95-90-80-75-70-60-50-40-30-20-10-0%.
Form A was subjected to the increasing relative humidity until a change in mass occurred. Once a change in mass resulted, the relative humidity was lowered to determine stability of the resulting mass. The relative humidity was then increased again until another change in mass resulted. Once a change in mass resulted, the relative humidity was lowered to determine stability of the resulting mass.

Data set [4] is described as follows: pKa of epinephrine malonate salt Form A (general description). The following applies: no method given.
The nature of data set [5]: Relative thermodynamic stability studies in EtOH, EtOH/water and IPA/water; solid-state form stability. The following applies: for water activity (aw) at which the form is most-stable: room temperature; for relative humidity at which the form is kinetically stable: solid state, Form B once formed, Form C (days). On the procedure:
Relative thermodynamic stability studies in EtOH (crystallization process solvent), EtOH/water and IPA/water were performed. […] The critical water activity for Forms A/B interconversion is between aw=0.4-0.55 (40-55% RH). The transition temperature (Tt) for the enantiotropically related Forms A/C is between RT-40 °C. […] Form C is kinetically stable in solid state (days) at <40% RH.

Data set [6] can be described thus: Stability profile of epinephrine malonate salt (general description). The following applies: 7, 14, 30, 60, 90, 120, or 150 days.
[7] abbreviates: listed as Epinephrine Malonate Form A.
Setting [8] is: relative thermodynamic stability.

Take `CNC[C@H](O)c1ccc(O)c(O)c1` [Epinephrine Bitartrate, epinephrine bitartrate, reference compound]: in data set [1] (listed as bitartrate salt), the “amount nearly dissolved in 0.5 mL of added water” value (“amount nearly dissolved in 0.5 mL” below) is given as 259 mg and the “Approximate Solubility (g/mL)” value is on record as ~ 0.52 g/mL. In data set [1], the “Approximate Solubility (mg/0.5 mL)” value is about 259 mg mg/0.5 mL, the “Approximate Solubility” value is about 520 mg/mL and the “Content of Salt in VF (mg) 30 min” value is reported as 259.45 mg.

What is called solubility is how much of the substance goes into solution per volume. Usually pKa stands for the pH at which an ionisable group is half protonated. Take `CNC[C@H](O)c1ccc(O)c(O)c1` [Form A, epinephrine malonate]: the solubility in data set [2] (water) is at least 1140 mg/mL. Also, in data set [1], the “amount nearly dissolved in 0.5 mL” value was 912 mg and the “Approximate Solubility (g/mL)” value is given as ~ 1.82 g/mL. In data set [1] (setting [7]), the “Approximate Solubility” value is about 1820 mg/mL, the “Approximate Solubility (mg/0.5 mL)” value is listed as about 911 mg mg/0.5 mL and the “Content of Salt in VF (mg) 30 min” value was determined as 911.53 mg. Moreover, the “changes in mass during DVS” value in data set [3] is recorded as “Two changes in mass occurred”. In data set [4], the pKa was determined as 5.47. Besides, in data set [5], the “critical relative humidity for Forms A/B interconversion” value was 40-55 % RH and the “critical water activity for Forms A/B interconversion (aw)” value is listed as 0.4-0.55. The “water activity (aw) at which the form is most-stable” value in data set [5] (setting [8]) is listed as at most 0.4.

Turning to `CNC[C@H](O)c1ccc(O)c(O)c1` [Form B, epinephrine malonate], in data set [1], the “amount nearly dissolved in 0.5 mL” value is recorded as 511 mg, the “Approximate Solubility (mg/0.5 mL)” value is on record as about 511 mg mg/0.5 mL, the “Approximate Solubility” value turned out to be 1000 mg/mL and the “Content of Salt in VF (mg) 30 min” value is recorded as 511 mg. In data set [5], the “critical relative humidity for Forms A/B interconversion” value is given as 40-55 % RH, the “critical water activity for Forms A/B interconversion (aw)” value was 0.4-0.55 and the “relative humidity at which the form is kinetically stable” value is recorded as 0-80 % RH. For the same molecule, in data set [5] (setting [8]), the “water activity (aw) at which the form is most-stable” value is at least 0.55. The “relative humidity for solid-state transition from Form A to Form B” value in data set [5] (solid-state) is reported as at least 40 % RH. Further, the “formation of Form B in solid state” value in data set [5] (solid-state, >55% RH) is listed as “forms relatively quickly (hours) at >55% RH”.

`CNC[C@H](O)c1ccc(O)c(O)c1` [Form C, epinephrine malonate]: in data set [5] (40 °C, relative thermodynamic stability), the “water activity (aw) at which the form is more stable at 40 °C” value is 0. For the same molecule, the “relative humidity at which the form is kinetically stable” value in data set [5] is on record as under 40 % RH.

As for `CNC[C@H](O)c1ccc(O)c(O)c1` [epinephrine malonate salt, epinephrine malonate], the stability profile entry in data set [6] is given as “favorable stability profile”. Further, the “water solubility compared with other epinephrine salts (maleate, fumarate, hemi sulfate, bitartrate, hydrochloride)” value in data set [2] (crystalline form) was “substantially higher”.

Source of the values: patent US20260355132A1, “POLYMORPHIC FORMS OF EPINEPHRINE MALONATE” (Biothea Pharma, Inc., priority 2023, published 2026).
